Experiments:
[1] = test system: endoplasmic reticulum calcium (D1ER sensor); assay: D1ER cameleon calcium FRET sensor in HEK293 cells (ER calcium depletion), spectral mode; assay type: cell-based, human; settings: for T50 (rate of calcium depletion): saturating drug concentrations, Hill fit of time course
Procedure: Investigation of a CFP and YFP FRET pair was evaluated with the well-known cameleon calcium sensor, in which the calmodulin-binding (M13) domain of myosin light chain kinase (MLCK) and calcium-binding domain of calmodulin are fused together, and located between two fluorescence proteins (eCFP/mCitrine). These calcium sensors have allowed cellular [Ca^2+] to be monitored more directly and reliably than using calcium-sensitive dyes. The endoplasmic reticulum-targeted cameleon sensor (D1ER) was selected because it is known to be sensitive to the SERCA inhibitors thapsigargin, CPA, and BHQ. Instead of detecting direct ligand binding, as in the 2CS studies reported above, the D1ER sensor can be used to monitor changes in ER calcium level. Upon SERCA inhibition, calcium is no longer pumped into the ER, leading to calcium depletion through various mechanisms including IP3-gated receptors and ryanodine receptors. D1ER senses these changes as calcium binding leads to a conformational rearrangement of the biosensors, increasing FRET between CFP and YFP. Therefore, calcium depletion due to SERCA inhibition is detected as a decrease in FRET.
A HEK293 stable clone with constitutive expression of the D1ER cameleon calcium sensor was generated using G418 antibiotic selection. […] Cells were harvested and dispensed into 384-well plates containing the same concentrations of thapsigargin, CPA, and BHQ, as previously evaluated with 2CS (FIG. 9). D1ER FRET was monitored only in spectral mode, because the CFP donor cannot be excited effectively by the 473 nm laser used in lifetime mode. ER calcium was monitored by repeatedly scanning the 384 well plate at three-minute intervals over a 120-minute period. […]
After resuspension and dilution in PBS, the cells were constantly and gently stirred using a magnetic stir bar at room temperature, keeping the cells in suspension and evenly distributed to avoid clumping. […] Concentration-response curves (CRC) of the FRET hits were assessed at multiple time points by repeatedly scanning the 384-well plates. […] The D1ER calcium sensor monitored changes in endoplasmic reticulum [Ca^2+] […] The methods and protocols for the D1ER cells were identical to those for 2CS, with the exception that they were evaluated only in spectral mode, and the 384-well plates containing compound CRCs were scanned every three minutes for two-hours.
SERCA malfunction can result in decreased ATPase activity and/or calcium pumping efficiency. ER calcium content was monitored over time using the endoplasmic-localized cameleon calcium FRET sensor (D1ER). […] Briefly, D1ER FRET changes were monitored over time by repeatedly (every 3 minutes) scanning a 384-well plate containing varying concentrations of the 2CS FRET hits. D1ER cells were assessed immediately after compound incubation. […]

[2] = biological target: two-color SERCA (2CS) biosensor (SERCA2a) (UniProt P16615); assay: 2CS FRET biosensor in living HEK293 cells, spectral mode (spectral unmixing plate reader); assay type: cell-based, human; settings: for 2CS FRET hit identification: NCC screen, reproducible and dose-dependent FRET decrease
Procedure: HEK293 cells were maintained in phenol-red-free DMEM from Gibco (Waltham, Mass.) supplemented with 2 mM GlutaMAX (Gibco), 10% fetal bovine serum (FBS) from Atlanta Biologicals (Laweranceville, Ga.), and 1 IU/mL penicillin/streptomycin (Gibco) and grown at 37° C. with 5% CO2. Stable clones expressing the FRET biosensors and corresponding donor- and acceptor-labeled control cell lines were established as described previously [3]. Briefly, cells were transfected with the recombinant DNA following established protocols lipofectaimine 3000 from Invitrogen (Carlsbad, Calif.). 48 hours post transfection the cells were placed under G418 (500 μg/mL) from Sigma (St. Louis, Mo.), antibiotic selection, and plated to allow for the growth of single colonies. Clones were isolated 2-3 weeks after transfection and antibiotic selection. […] The cell lines were expanded in T225 flasks from Corning (Corning, N.Y.), harvested by treatment with Tryple (Invitrogen), washed three times in phosphate buffer solution (PBS) with no magnesium or calcium Thermo Fischer (Waltham, Mass.)) and centrifuged at 300 g, filtered using 70 μm cell strainers (Corning), and diluted to 10^6 cells/mL using an automated countess cell counter from Invitrogen. In studies with cyan and yellow fluorescent protein biosensors, transient transfections were performed. In these studies, cells were harvested and prepared as described above, 48 hours after transfection. Cell viability was assessed using trypan blue. […]
The observed fluorescence emission spectrum F(λ) was fitted by least-squares minimization to a linear combination of component spectra
where D is donor, A is acceptor, C is cell autofluorescence, and W is water Raman, and a, b, c, d are the weighting (scalar) coefficients determined from the fit. The fitted spectrum for each well was determined using least squares minimization with Matlab (Mathworks) to solve for the scalar coefficients.
For an intramolecular FRET sensor with a 1:1 ratio of donor D and acceptor A molecules, FRET efficiency (FRET) was determined from (Eq. 10).

[3] = Water Raman spectrum of compound-only wells (compound aggregation); assay type: physicochemical; settings: dose-dependent
Excerpt: The high sensitivity of spectral mode is shown by the fluorescence signal of the water Raman spectrum.

[4] = biological target: two-color SERCA (2CS) biosensor (SERCA2a) (UniProt P16615); assay: 2CS FRET biosensor in living HEK293 cells, fluorescence lifetime mode; assay type: cell-based, human
Procedure: HEK293 cells were maintained in phenol-red-free DMEM from Gibco (Waltham, Mass.) supplemented with 2 mM GlutaMAX (Gibco), 10% fetal bovine serum (FBS) from Atlanta Biologicals (Laweranceville, Ga.), and 1 IU/mL penicillin/streptomycin (Gibco) and grown at 37° C. with 5% CO2. Stable clones expressing the FRET biosensors and corresponding donor- and acceptor-labeled control cell lines were established as described previously. Briefly, cells were transfected with the recombinant DNA following established protocols lipofectaimine 3000 from Invitrogen (Carlsbad, Calif.). 48 hours post transfection the cells were placed under G418 (500 μg/mL) from Sigma (St. Louis, Mo.), antibiotic selection, and plated to allow for the growth of single colonies. Clones were isolated 2-3 weeks after transfection and antibiotic selection. The stability of each clone was assessed by flow cytometry and confocal microscopy (data not shown). The cell lines were expanded in T225 flasks from Corning (Corning, N.Y.), harvested by treatment with Tryple (Invitrogen), washed three times in phosphate buffer solution (PBS) with no magnesium or calcium Thermo Fischer (Waltham, Mass.)) and centrifuged at 300 g, filtered using 70 μm cell strainers (Corning), and diluted to 10^6 cells/mL using an automated countess cell counter from Invitrogen. In studies with cyan and yellow fluorescent protein biosensors, transient transfections were performed. In these studies, cells were harvested and prepared as described above, 48 hours after transfection. Cell viability was assessed using trypan blue.
Cells were dispensed using a Multidrop Combi liquid dispenser from Thermo Fischer (Pittsburgh, Pa.) at a density of 10^6/mL. Compounds were diluted in DMSO and dispensed either using a Mosquito liquid handeler from TTP Labtech (Melbourn, UK) or a Mantis liquid dispenser from Formulatrix (Bedford, Mass.). The known SERCA inhibitors thapsigargin (TG, Sigma), 1,4-dihydroxy-2,5-di-tert-butylbenzene (BHQ) from Tocris (Minneapolis, Minn.), and cyclopiazonic acid (CPA, Tocris) were diluted at 50× concentrations and subsequently serially diluted in 96-well mother plates prior to liquid dispensing. […]
In its spectral unmixing plate reader (SUPR) mode, the instrument provides direct high-throughput detection of the complete fluorescence emission spectrum, (emission vs wavelength), with excitation provided by a 473 nm continuous wave laser. Spectra are recorded using a grating-based fiber optic input spectrograph equipped with linear-array CCD detector (Sony ILX511B). The recorded wavelength range in these experiments spanned the entire visible spectrum, but only the 400-700 nm range was used in the data analysis. In lifetime mode, the full nanosecond-resolved fluorescence emission waveform is acquired following excitation with a 473 nm pulsed microchip laser. […]
Fluorescence decay waveforms for lifetime determination, were detected directly as previously described. […] A full fluorescence decay waveform was detected in response to each laser pulse over a 128 ns time window, using a photomultiplier module from Hamamatsu (Cat #H10720-210), and a proprietary transient digitizer from Fluorescence Innovations (Minneapolis, Minn.). A 488 nm long-pass filter from Semrock (Rochester, N.Y.) and 517/20 bandpass emission filter (lifetime mode), were used, ensuring that only emission from the GFP donor was detected. […]

SERCA2a = SERCA2a (Homo sapiens, UniProt P16615); settings: binding to SERCA2a, literature; cited from earlier work
cytosolic calcium = settings: literature; cited from earlier work

Chain of SERCA2a (P16615 1-997 isoform P16615-2, species assumed): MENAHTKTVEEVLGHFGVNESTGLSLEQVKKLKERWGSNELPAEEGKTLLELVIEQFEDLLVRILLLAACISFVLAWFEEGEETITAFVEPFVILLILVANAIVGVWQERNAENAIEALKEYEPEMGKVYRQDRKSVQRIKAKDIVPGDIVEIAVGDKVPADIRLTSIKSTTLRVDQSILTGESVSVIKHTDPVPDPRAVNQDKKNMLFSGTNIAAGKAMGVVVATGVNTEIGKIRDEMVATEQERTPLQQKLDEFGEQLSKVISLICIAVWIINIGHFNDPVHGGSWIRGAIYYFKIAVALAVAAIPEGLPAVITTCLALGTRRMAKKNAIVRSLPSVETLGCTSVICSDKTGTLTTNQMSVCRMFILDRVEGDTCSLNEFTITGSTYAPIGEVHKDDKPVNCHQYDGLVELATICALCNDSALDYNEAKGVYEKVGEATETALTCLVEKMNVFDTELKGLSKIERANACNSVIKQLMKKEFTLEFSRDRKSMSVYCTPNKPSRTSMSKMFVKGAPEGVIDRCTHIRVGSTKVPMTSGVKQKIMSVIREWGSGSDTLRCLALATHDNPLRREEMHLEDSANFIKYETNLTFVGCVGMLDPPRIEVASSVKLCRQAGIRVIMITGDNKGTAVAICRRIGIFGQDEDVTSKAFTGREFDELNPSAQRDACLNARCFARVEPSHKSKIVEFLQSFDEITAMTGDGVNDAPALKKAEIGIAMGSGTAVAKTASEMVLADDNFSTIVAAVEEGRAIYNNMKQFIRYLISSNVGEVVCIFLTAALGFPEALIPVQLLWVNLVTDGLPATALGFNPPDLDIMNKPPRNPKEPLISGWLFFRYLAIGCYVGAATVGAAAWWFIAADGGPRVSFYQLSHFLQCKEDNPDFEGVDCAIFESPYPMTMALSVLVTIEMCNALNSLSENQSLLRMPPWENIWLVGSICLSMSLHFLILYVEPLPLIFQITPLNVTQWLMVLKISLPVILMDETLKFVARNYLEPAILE

CC(C)(C)c1cc(O)c(C(C)(C)C)cc1O [BHQ, 1,4-dihydroxy-2,5-di-tert-butylbenzene]
T50 (rate of calcium depletion) [1]: 17.4 min

c1ccc(-c2ccc(C(c3ccccc3)n3ccnc3)cc2)cc1 (stereo not shown) [bifonazole]
2CS FRET hit identification [2]: hits

Clc1ccccc1C(c1ccccc1)(c1ccccc1)n1ccnc1 [clotrimazole]
2CS FRET hit identification [2]: hit

Clc1ccc(COC(Cn2ccnc2)c2ccc(Cl)cc2Cl)c(Cl)c1 (stereo not shown) [miconazole]
2CS FRET hit identification [2]: hits | ER calcium depletion ([1]; over 120 minutes): largest amount of ER calcium depletion | Raman scattering, compound aggregation [3]: decreases inelastic light scattering (Raman band)

C/C=C(/C)C(=O)O[C@H]1C(C)=C2[C@H]([C@@H]1OC(=O)CCCCCCC)[C@@](C)(OC(C)=O)C[C@H](OC(=O)CCC)[C@@]1(O)[C@H]2OC(=O)[C@@]1(C)O [thapsigargin]
reduction in FRET ([2]; 50 nM thapsigargin, spectral mode, average of 32 wells): 8% | reduction in FRET efficiency ([4]; 50 nM thapsigargin, lifetime mode, versus donor-only control): 6% | 2CS structural equilibrium between open and closed states ([4]; global lifetime analysis): shifts this equilibrium substantially toward the open state | 2CS structural equilibrium between open and closed states ([4]; global lifetime analysis, listed as Thapsigargin): greatly increasing the population of the more open and disordered structural state | EC50 ([4]; read-out: EC50 of closed state mole fraction, global lifetime analysis, two-state model): 2.2 nM | increase in the GFP lifetime ([4]; saturating concentration, 50 nM): 200 picosecond | EC50 ([1]; Homo sapiens, HEK293, 2 h, ER calcium depletion at 120 min time point, read-out: equilibrium constant of sigmoidal D1ER FRET response): 1.97 nM | T50 (rate of calcium depletion) [1]: 9.5 min | Ki (SERCA2a): 2 nM

Oc1cc(Cl)ccc1Oc1ccc(Cl)cc1Cl [triclosan]
cytosolic calcium (cytosolic calcium): increase cytosolic calcium

Source: patent publication US20210255195A1, “HIGH PRECISION SPECTRAL FRET ASSAYS” (Regents of the University of Minnesota, priority 2017, published 2021)
